Ki data for 38 molecules are collected here from patent US7217702B2, “Selective antagonists of A2A adenosine receptors” (Adenosine Therapeutics, LLC, priority 2004, dated 2007).

SMILES strings stand for the structures. pKi: −log10 of the molar value.

In this test the target is A2A adenosine receptor (Homo sapiens, UniProt P29274). As to the kind of experiment: Human Ki of the compound tables. The class given is binding. The conditions noted are these: receptor subtype not given.
Chain of A2A adenosine receptor (P29274 whole entry): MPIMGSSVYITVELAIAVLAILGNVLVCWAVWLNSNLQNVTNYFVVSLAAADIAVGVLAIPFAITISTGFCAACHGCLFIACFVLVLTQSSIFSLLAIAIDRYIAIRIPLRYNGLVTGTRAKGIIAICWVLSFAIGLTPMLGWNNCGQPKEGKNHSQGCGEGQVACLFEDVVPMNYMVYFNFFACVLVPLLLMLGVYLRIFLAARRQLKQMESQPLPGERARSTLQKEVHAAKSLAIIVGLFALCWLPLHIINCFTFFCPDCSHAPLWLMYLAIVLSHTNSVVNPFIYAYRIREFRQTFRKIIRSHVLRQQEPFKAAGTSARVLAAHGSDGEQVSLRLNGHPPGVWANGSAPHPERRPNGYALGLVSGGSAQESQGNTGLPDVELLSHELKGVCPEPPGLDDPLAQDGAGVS
As usually defined, the pKi is the negative decadic logarithm of the Ki, by convention in mol/L. Read a high pKi as a small Ki. Take `Nc1nc(C#CC2(O)C3CC4CC(C3)CC2C4)nc2c1ncn2CCO` (centres unmarked) [Compound 52, 2-{2-[Hydroxy-adamantan-2-yl]ethyn-1-yl}-9-(2-hydroxyethyl)adenine]: the pKi was greater than 6.30.

`C#CCn1cnc2c(N[C@@H](C)CC)nc(C#C[C@]3(O)CCC[C@@H](C)C3)nc21` [Compound 32, N6-[(S)-(+)-sec-Butyl]-2-{2-[1(S)-hydroxy-3(R)-methyl-1-cyclohexyl]ethyn-1-yl}-9-propargyl-adenine] gave a pKi greater than 7.00. Next, `Cn1cnc2c(N)nc(C#CC3(O)C4CC5CC(C4)CC3C5)nc21` (centres unmarked) [Compound 39, 2-{2-[Hydroxy-adamantan-2-yl]ethyn-1-yl}-9-methyladenine]: greater than 7.00. For the molecule `CCn1cnc2c(N)nc(C#CC3(O)C4CC5CC(C4)CC3C5)nc21` (centres unmarked) [Compound 40, 9-Ethyl-2-{2-[hydroxy-adamantan-2-yl]ethyn-1-yl}adenine], the negative logarithm of the Ki (pKi) was greater than 7.00.

The molecule `CC[C@H](C)Nc1nc(C#C[C@]2(O)CCC[C@@H](C)C2)nc2c1ncn2Cc1c(C)noc1C` [Compound 33, N6-[(s)-(+)-sec-Butyl]-9-(3,5-dimethyl-isoxazol-4-ylmethyl)-2-{2-[1(S)-hydroxy-3(R)-methyl-1-cyclohexyl]ethyn-1-yl}adenine] gave a pKi greater than 7.00. Next, `CCC(CC)Nc1nc(C#C[C@]2(O)CCC[C@@H](C)C2)nc2c1ncn2Cc1ccccc1` [Compound 27, 9-Benzyl-2-{2-[1(S)-hydroxy-3(R)-methyl-1-cyclohexyl]ethyn-1-yl}-N6-(3-pentyl)adenine]: greater than 7.00. Next, `Nc1nc(C#CC2(O)C3CC4CC(C3)CC2C4)nc2c1ncn2CC1CCCC1` (centres unmarked) [Compound 47, 9-Cyclopentylmethyl-2-{2-[hydroxy-adamantan-2-yl]ethyn-1-yl}adenine]: greater than 6.30; `C=CCn1cnc2c(NC(CC)CC)nc(C#C[C@]3(O)CCC[C@@H](C)C3)nc21` [Compound 16, 9-Allyl-2-{2-[1(S)-hydroxy-3(R)-methyl-1-cyclohexyl]ethyn-1-yl}-N6-(3-pentyl)adenine]: greater than 7.00. As for `C#CCn1cnc2c(N)nc(C#CC3(O)CC4CCC3C4)nc21` (single isomer, unassigned) [Compound 60, 2-{2-[Hydroxy-norbornan-2-yl]ethyn-1-yl}-9-propargyladenine], the figure is greater than 7.00; as for `Nc1nc(C#CC2(O)C3CC4CC(C3)CC2C4)nc2c1ncn2CCCO` (centres unmarked) [Compound 53], greater than 6.30.

`CCC(CC)Nc1nc(C#C[C@]2(O)CCC[C@@H](C)C2)nc2c1ncn2CCO` [Compound 19, 9-(2-Hydroxyethyl)-2-{2-[1(S)-hydroxy-3(R)-methyl-1-cyclohexyl]ethyn-1-yl}-N6-(3-pentyl)adenine] showed a pKi greater than 7.00. Next, `C[C@@H]1CCC[C@@](O)(C#Cc2nc(N)c3ncn(CC#Cc4cccs4)c3n2)C1` [Compound 10]: greater than 6.30; `C#CCn1cnc2c(NCc3cccc(OC)c3)nc(C#C[C@]3(O)CCC[C@@H](C)C3)nc21` [Compound 36, 2-{2-[1(S)-Hydroxy-3(R)-methyl-1-cyclohexyl]ethyn-1-yl}-N6-(3-methoxybenzyl)-9-(propargyl)adenine]: greater than 7.00; `CCC(CC)Nc1nc(C#C[C@]2(O)CCC[C@@H](C)C2)nc2c1ncn2CC1CC1` [Compound 14, 9-Cyclopropylmethyl-2-{2-[1(S)-hydroxy-3(R)-methyl-1-cyclohexyl]ethyn-1-yl}-N6-(3-pentyl)adenine]: greater than 7.00. For `C#CCCCn1cnc2c(NC(CC)CC)nc(C#C[C@]3(O)CCC[C@@H](C)C3)nc21` [Compound 18, 2-{2-[1(S)-Hydroxy-3(R)-methyl-1-cyclohexyl]ethyn-1-yl}-N6-(3-pentyl)-9-(pent-4-yne)adenine], the pKi was greater than 7.00. As for `Nc1nc(C#CC2(O)C3CC4CC(C3)CC2C4)nc2c1ncn2C1CCC1` (centres unmarked) [Compound 49, 9-Cyclobutyl-2-{2-[hydroxy-adamantan-2-yl]ethyn-1-yl}adenine], the figure is greater than 7.00; as for `Cc1noc(C)c1Cn1cnc2c(N)nc(C#C[C@]3(O)CCC[C@@H](C)C3)nc21` [Compound 8, 9-(3,5-Dimethyl-isoxazol-4-ylmethyl)-2-{2-[1(S)-hydroxy-3(R)-methyl-1-cyclohexyl]ethyn-1-yl}adenine], greater than 7.00. As for `CCC(CC)Nc1nc(C#C[C@]2(O)CCC[C@@H](C)C2)nc2c1ncn2Cc1c(C)noc1C` [Compound 30, 9-(3,5-Dimethyl-isoxazol-4-ylmethyl)-2-{2-[1(S)-hydroxy-3(R)-methyl-1-cyclohexyl]ethyn-1-yl}-N6-(3-pentyl)adenine], the figure is greater than 7.00; as for `C#CCCn1cnc2c(N)nc(C#CC3(O)C4CC5CC(C4)CC3C5)nc21` (centres unmarked) [Compound 62, 9-(But-3-ynyl)-2-{2-[hydroxy-adamantan-2-yl]ethyn-1-yl}adenine], greater than 7.00. Next, `C#CCn1cnc2c(N)nc(C#CC3(O)CC4CCC3C4)nc21` (single isomer, unassigned) [Compound 61, 2-{2-[Hydroxy-norbornan-2-yl]ethyn-1-yl}-9-propargyladenine]: greater than 7.00; `Nc1nc(C#CC2(O)C3CC4CC(C3)CC2C4)nc2c1ncn2CC1CCC1` (centres unmarked) [Compound 46, 9-Cyclobutylmethyl-2-{2-[hydroxy-adamantan-2-yl]ethyn-1-yl}adenine]: greater than 7.00; `CCCn1cnc2c(N)nc(C#CC3(O)C4CC5CC(C4)CC3C5)nc21` (centres unmarked) [Compound 41, 2-{2-[Hydroxy-adamantan-2-yl]ethyn-1-yl}-9-propyladenine]: greater than 7.00.

Molecule `C[C@@H]1CCC[C@@](O)(C#Cc2nc(N)c3ncn(CC4CC4)c3n2)C1` [Compound 1, 9-Cyclopropylmethyl-2-{2-[1(S)-hydroxy-3(R)-methyl-1-cyclohexyl]ethyn-1-yl}adenine] gave a pKi greater than 7.00. `CCC(CC)Nc1nc(C#C[C@]2(O)CCC[C@@H](C)C2)nc2c1ncn2C1CCCC1` [Compound 15, 9-Cyclopentyl-2-{2-[1(S)-hydroxy-3(R)-methyl-1-cyclohexyl]ethyn-1-yl}-N6-(3-pentyl)adenine] gave a pKi greater than 7.00.

`C#CCn1cnc2c(N[C@@H](C)c3cccc4ccccc34)nc(C#C[C@]3(O)CCC[C@@H](C)C3)nc21` [Compound 35, 2-{2-[1(S)-Hydroxy-3(R)-methyl-1-cyclohexyl]ethyn-1-yl}-N6-[(s)-(−)-alpha-napthalen-1-yl-ethyl]-9-(propargyl)adenine] showed a pKi greater than 6.30. Next, `C[C@@H]1CCC[C@@](O)(C#Cc2nc(NCC(c3ccccc3)c3ccccc3)c3ncn(C)c3n2)C1` [Compound 34, N6-(2-Diphenylethyl)-2-{2-[1(S)-hydroxy-3(R)-methyl-1-cyclohexyl]ethyn-1-yl}-9-methyladenine]: greater than 6.30; `CC(C)Cn1cnc2c(N)nc(C#CC3(O)C4CC5CC(C4)CC3C5)nc21` (centres unmarked) [Compound 44, 2-{2-[Hydroxy-adamantan-2-yl]ethyn-1-yl}-9-isobutyl-adenine]: greater than 6.30.

Molecule `CCC(CC)Nc1nc(C#C[C@]2(O)CCC[C@@H](C)C2)nc2c1ncn2Cc1cccnc1` [Compound 28, 2-{2-[1(S)-Hydroxy-3(R)-methyl-1-cyclohexyl]ethyn-1-yl}-N6-(3-pentyl)-9-(pyridin-3-ylmethyl)adenine] had a pKi greater than 7.00. `CCCCCCn1cnc2c(N)nc(C#CC3(O)C4CC5CC(C4)CC3C5)nc21` (centres unmarked) [Compound 42, 9-Hexyl-2-{2-[hydroxy-adamantan-2-yl]ethyn-1-yl}adenine] showed a negative-log Ki (pKi) greater than 6.00. As to `CCC(CC)Nc1nc(C#C[C@]2(O)CCC[C@@H](C)C2)nc2c1ncn2CC(C)C` [Compound 13, 9-Isobutyl-2-{2-[1(S)-hydroxy-3(R)-methyl-1-cyclohexyl]ethyn-1-yl}-N6-(3-pentyl)adenine], the pKi is greater than 6.30. As for `C#CCn1cnc2c(N)nc(C#CCC3CCN(C(=O)OC)CC3)nc21` [Compound 63, 2-{3-[1-(Methoxycarbanoyl)piperidin-4-yl]propyn-1-yl}-9-propargyladenine], the figure is greater than 7.00. `C#CCn1cnc2c(NCc3ccccn3)nc(C#C[C@]3(O)CCC[C@@H](C)C3)nc21` [Compound 37, 2-{2-[1(S)-Hydroxy-3(R)-methyl-1-cyclohexyl]ethyn-1-yl}-9-(propargyl)-N6-(pyridin-2-ylmethyl)adenine]: the pKi is greater than 7.00. In turn, `C[C@@H]1CCC[C@@](O)(C#Cc2nc(N)c3ncn(CC#N)c3n2)C1` [Compound 4, 9-Acetonitrile-2-{2-[1(S)-hydroxy-3(R)-methyl-1-cyclohexyl]ethyn-1-yl}adenine] had a pKi greater than 7.00. For `CCCn1cnc2c(NC(CC)CC)nc(C#C[C@]3(O)CCC[C@@H](C)C3)nc21` [Compound 12, 2-{2-[1(S)-Hydroxy-3(R)-methyl-1-cyclohexyl]ethyn-1-yl}-N6-(3-pentyl)-9-propyladenine], the pKi was greater than 7.00.

`CCC(CC)Nc1nc(C#C[C@]2(O)CCC[C@@H](C)C2)nc2c1ncn2CCCO` [Compound 20, 2-{2-[1(S)-Hydroxy-3(R)-methyl-1-cyclohexyl]ethyn-1-yl}-9-(3-hydroxypropyl)-N6-(3-pentyl)adenine] showed a pKi greater than 6.30. Next, `Nc1nc(C#CC2(O)C3CC4CC(C3)CC2C4)nc2c1ncn2CC1CC1` (centres unmarked) [Compound 45, 9-Cyclopropylmethyl-2-{2-[hydroxy-adamantan-2-yl]ethyn-1-yl}adenine]: greater than 7.00; `CCC(CC)Nc1nc(C#C[C@]2(O)CCC[C@@H](C)C2)nc2c1ncn2CC1OCCO1` [Compound 22, 9-([1,3]-Dioxolan-2-ylmethyl)-2-{2-[1(S)-hydroxy-3(R)-methyl-1-cyclohexyl]ethyn-1-yl}-N6-(3-pentyl)adenine]: greater than 6.30; `CCOC(=O)Cn1cnc2c(NC(CC)CC)nc(C#C[C@]3(O)CCC[C@@H](C)C3)nc21` [Compound 25, 9-(Acetic acid ethyl ester)-2-{2-[1(S)-hydroxy-3(R)-methyl-1-cyclohexyl]ethyn-1-yl}-N6-(3-pentyl)adenine]: greater than 6.30.
